Assay results published in ChEMBL document CHEMBL5725943, “Isoxazole derivatives as FXR agonists and methods of use therof” (2018).

Biological target: T1, Bile acid receptor (Homo sapiens, UniProt Q96RI1)
T1 sequence (Q96RI1 whole entry): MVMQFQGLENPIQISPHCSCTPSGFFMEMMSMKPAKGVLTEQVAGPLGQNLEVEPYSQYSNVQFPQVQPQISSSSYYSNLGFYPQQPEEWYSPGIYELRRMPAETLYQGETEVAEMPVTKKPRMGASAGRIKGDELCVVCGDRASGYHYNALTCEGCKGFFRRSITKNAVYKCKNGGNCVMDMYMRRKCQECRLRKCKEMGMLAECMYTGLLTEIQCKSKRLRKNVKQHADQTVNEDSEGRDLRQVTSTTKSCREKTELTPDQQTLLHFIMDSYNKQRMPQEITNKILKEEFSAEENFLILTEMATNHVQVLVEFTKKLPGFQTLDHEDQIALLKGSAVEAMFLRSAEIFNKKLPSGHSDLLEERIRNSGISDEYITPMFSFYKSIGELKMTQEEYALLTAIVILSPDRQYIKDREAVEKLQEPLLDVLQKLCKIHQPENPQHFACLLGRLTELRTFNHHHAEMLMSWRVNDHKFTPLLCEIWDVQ
Experiment: FXR Reporter Assay kit purchased from Indigo Bioscience (Catalogue number: IB00601) to determine the potency and efficacy of compound developed by Enanta that can induce FXR activation. The principle application of this reporter assay system is to quantify functional activity of human FXR. The assay utilizes non-human mammalian cells, CHO (Chinese hamster ovary) cells engineered to express human NR1H4 protein (referred to as FXR). Reporter cells also incorporate the cDNA encoding beetle luciferase which catalyzes the substrates and yields photon emission. Luminescence intensity of the reaction is quantified using a plate-reading luminometer, Envision. Reporter Cells include the luciferase reporter gene functionally linked to an FXR responsive promoter. Thus, quantifying changes in luciferase expression in the treated reporter cells provides a sensitive surrogate measure of the changes in FXR activity. […] The assay is according to the manufacturer's instructions. In brief, the assay was performed in white, 96 well plates using final volume of 100 μl containing cells with different doses of compounds. Retrieve Reporter Cells from −80° C. storage. Perform a rapid thaw of the frozen cells by transferring a 10 ml volume of 37° C. cell recovery medium into the tube of frozen cells. Recap the tube of Reporter Cells and immediately place it in a 37° C. water bath for 5-10 minutes. […]
Format: cell-based

EC50: < 0.1 µM
Compound: CN(Cc1ccc(C(=O)NS(=O)(=O)N(C)C)cc1)c1ccc(OCc2c(-c3c(Cl)cccc3Cl)noc2C2CC2)nc1C(F)(F)F
